# Species on record: Rattus norvegicus
# Experiment: Open TG-GATES - Regimen: Single
# Assay type: toxicity, organism-based, Sprague-Dawley
# Set-up: regimen Single, gender Male, age 6 weeks
# Settings: in vivo, po, 100 mg/kg, route gavage, dose level Low; for APTT / Bas / Eos / Fbg / Hb / Ht / Lym / MCH / MCHC / MCV / Mono / Neu / PT / Plat / RBC / Ret / WBC: tissue Blood; for KIDNEY_L / KIDNEY_R / KIDNEY_TOTAL: tissue Kidney; for LIVER: tissue Liver; for A/G / ALP / ALT / AST / BUN / CRE / Ca / Cl / DBIL / GLC / IP / LDH / Na / PL / RALB / TBIL / TC / TG / TP / gamma-GTP: tissue Plasma
structure (smiles),measurement,setting,value
NC(N)=Nc1nc(CSCCC(N)=NS(N)(=O)=O)cs1 [FAMOTIDINE],TERMINAL_BW,3 h,213.7 g
same,APTT,3 h,19.6 s
same,Bas,3 h,0%
same,Eos,3 h,0.6%
same,Fbg,3 h,217.4 mg/dL
same,Hb,3 h,13.5 g/dL
same,Ht,3 h,38.2%
same,Lym,3 h,71.2%
same,MCH,3 h,22.6 pg
same,MCHC,3 h,35.3%
same,MCV,3 h,64.1 fL
same,Mono,3 h,2.4%
same,Neu,3 h,24%
same,PT,3 h,12.3 s
same,Plat,3 h,112.1 x10_4/uL
same,RBC,3 h,596.2 x10_4/ul
same,Ret,3 h,7.2%
same,WBC,3 h,80 x10_2/uL
same,KIDNEY_L,3 h,1 g
same,KIDNEY_R,3 h,1 g
same,KIDNEY_TOTAL,3 h,1.9 g
same,LIVER,3 h,10.3 g
same,A/G,3 h,1.7
same,ALP,3 h,1057.6 IU/L
same,ALT,3 h,38 IU/L
same,AST,3 h,64.8 IU/L
same,BUN,3 h,9.4 mg/dL
same,CRE,3 h,0.4 mg/dL
same,Ca,3 h,10.5 mg/dL
same,Cl,3 h,104.2 meq/L
same,DBIL,3 h,0.076 mg/dL
same,GLC,3 h,196.2 mg/dL
same,IP,3 h,9.2 mg/dL
same,LDH,3 h,186.2 IU/L
same,Na,3 h,141 meq/L
same,PL,3 h,144.6 mg/dL
same,RALB,3 h,3.4 g/dL
same,TBIL,3 h,0.1 mg/dL
same,TC,3 h,79 mg/dL
same,TG,3 h,56.6 mg/dL
same,TP,3 h,5.5 g/dL
same,gamma-GTP,3 h,1 IU/L
same,TERMINAL_BW,6 h,212.2 g
same,APTT,6 h,18.5 s
same,Bas,6 h,0%
same,Eos,6 h,0.8%
same,Fbg,6 h,222.2 mg/dL
same,Hb,6 h,13.4 g/dL
same,Ht,6 h,37.5%
same,Lym,6 h,71.4%
same,MCH,6 h,22.2 pg
same,MCHC,6 h,35.7%
same,MCV,6 h,62.3 fL
same,Mono,6 h,2.6%
same,Neu,6 h,22.8%
same,PT,6 h,12.4 s
same,Plat,6 h,120.7 x10_4/uL
same,RBC,6 h,602.6 x10_4/ul
same,Ret,6 h,6.8%
same,WBC,6 h,98.6 x10_2/uL
same,KIDNEY_L,6 h,1 g
same,KIDNEY_R,6 h,0.9 g
same,KIDNEY_TOTAL,6 h,1.9 g
same,LIVER,6 h,9.4 g
same,A/G,6 h,1.5
same,ALP,6 h,808.4 IU/L
same,ALT,6 h,34.2 IU/L
same,AST,6 h,68 IU/L
same,BUN,6 h,9.4 mg/dL
same,CRE,6 h,0.4 mg/dL
same,Ca,6 h,10.7 mg/dL
same,Cl,6 h,103.2 meq/L
same,DBIL,6 h,0.068 mg/dL
same,GLC,6 h,189.4 mg/dL
same,IP,6 h,9 mg/dL
same,LDH,6 h,202 IU/L
same,Na,6 h,140.4 meq/L
same,PL,6 h,141.2 mg/dL
same,RALB,6 h,3.2 g/dL
same,TBIL,6 h,0.1 mg/dL
same,TC,6 h,82 mg/dL
same,TG,6 h,60 mg/dL
same,TP,6 h,5.4 g/dL
same,gamma-GTP,6 h,1.4 IU/L
same,TERMINAL_BW,9 h,209.4 g
same,APTT,9 h,18.3 s
same,Bas,9 h,0%
same,Eos,9 h,0.8%
same,Fbg,9 h,232.2 mg/dL
same,Hb,9 h,13.4 g/dL
same,Ht,9 h,37.1%
same,Lym,9 h,74.2%
same,MCH,9 h,22 pg
same,MCHC,9 h,36%
same,MCV,9 h,61.2 fL
same,Mono,9 h,2.2%
same,Neu,9 h,19.2%
same,PT,9 h,12.1 s
same,Plat,9 h,116.7 x10_4/uL
same,RBC,9 h,606.6 x10_4/ul
same,Ret,9 h,7%
same,WBC,9 h,87.3 x10_2/uL
same,KIDNEY_L,9 h,0.9 g
same,KIDNEY_R,9 h,1 g
same,KIDNEY_TOTAL,9 h,1.9 g
same,LIVER,9 h,9 g
same,A/G,9 h,1.6
same,ALP,9 h,851.2 IU/L
same,ALT,9 h,31.2 IU/L
same,AST,9 h,61.2 IU/L
same,BUN,9 h,10.2 mg/dL
same,CRE,9 h,0.4 mg/dL
same,Ca,9 h,10.5 mg/dL
same,Cl,9 h,103.6 meq/L
same,DBIL,9 h,0.064 mg/dL
same,GLC,9 h,200.8 mg/dL
same,IP,9 h,8.8 mg/dL
same,LDH,9 h,135.4 IU/L
same,Na,9 h,141 meq/L
same,PL,9 h,140.8 mg/dL
same,RALB,9 h,3.4 g/dL
same,TBIL,9 h,0.1 mg/dL
same,TC,9 h,80.6 mg/dL
same,TG,9 h,62.4 mg/dL
same,TP,9 h,5.5 g/dL
same,gamma-GTP,9 h,0.8 IU/L
same,TERMINAL_BW,24 h,225.3 g
same,APTT,24 h,19.8 s
same,Bas,24 h,0%
same,Eos,24 h,1%
same,Fbg,24 h,229.6 mg/dL
same,Hb,24 h,13.3 g/dL
same,Ht,24 h,37.2%
same,Lym,24 h,78.2%
same,MCH,24 h,22.3 pg
same,MCHC,24 h,35.8%
same,MCV,24 h,62.2 fL
same,Mono,24 h,2.2%
same,Neu,24 h,16.2%
same,PT,24 h,12 s
same,Plat,24 h,121.8 x10_4/uL
same,RBC,24 h,599.4 x10_4/ul
same,Ret,24 h,6.1%
same,WBC,24 h,86.8 x10_2/uL
same,KIDNEY_L,24 h,1 g
same,KIDNEY_R,24 h,1 g
same,KIDNEY_TOTAL,24 h,2 g
same,LIVER,24 h,10.8 g
same,A/G,24 h,1.4
same,ALP,24 h,990 IU/L
same,ALT,24 h,40.6 IU/L
same,AST,24 h,68.2 IU/L
same,BUN,24 h,14.2 mg/dL
same,CRE,24 h,0.4 mg/dL
same,Ca,24 h,10.6 mg/dL
same,Cl,24 h,104.2 meq/L
same,DBIL,24 h,0.076 mg/dL
same,GLC,24 h,199.4 mg/dL
same,IP,24 h,7.7 mg/dL
same,LDH,24 h,198.4 IU/L
same,Na,24 h,140.6 meq/L
same,PL,24 h,145.8 mg/dL
same,RALB,24 h,3.3 g/dL
same,TBIL,24 h,0.1 mg/dL
same,TC,24 h,74.2 mg/dL
same,TG,24 h,82.6 mg/dL
same,TP,24 h,5.6 g/dL
same,gamma-GTP,24 h,0.6 IU/L

# Source: ChEMBL document CHEMBL3885861, “Open TG-GATES”
